# Reference: US5527793A, “Antibiotic carbapenem compounds” (Zeneca Limited, priority 1992, dated 1996)
# Counter-ions that a name gives are not always drawn.
# Key:
# Test in all cases: MIC by agar-dilution technique, Diagnostic Sensitivity Test
# Type in all cases: cell-based
# [1] = system: E. coli DCO; details: Escherichia coli, inoculum 10^4 CFU/spot, read-out: minimum inhibitory concentration (MIC)
# Excerpt: (§1) The following results were obtained for representative compounds on a standard in vitro test system using Diagnostic Sensitivity Test. The antibacterial activity is described in terms of the minimum inhibitory concentration (MIC) determined by the agar-dilution technique with an inoculum size of 10^4 CFU/spot.
# [2] = system: Enterobacter cloacae P99-; details: P99, read-out: minimum inhibitory concentration (MIC)
# Excerpt: as §1
# [3] = system: S. aureus Oxford; details: Staphylococcus aureus, inoculum 10^4 CFU/spot, read-out: minimum inhibitory concentration (MIC)
# Excerpt: as §1
# [4] = system: P. morganii I + 001; details: Morganella morganii, inoculum 10^4 CFU/spot, read-out: minimum inhibitory concentration (MIC)
# Excerpt: as §1
# [5] = system: B. fragilis AMP S; details: Bacteroides fragilis, inoculum 10^4 CFU/spot, read-out: minimum inhibitory concentration (MIC)
# Excerpt: as §1
structure (smiles),measurement,setting,value
"C[C@@H](O)[C@H]1C(=O)N2C(C(=O)O)=C(S[C@@H]3CN[C@H](C(=O)Nc4nc(C(=O)O)cs4)C3)[C@H](C)[C@H]12 [Example 2, (1R,5S,6S,8R,2'S,4'S)-2-(2-(4-Carboxy-2-thiazolylcarbamoyl)pyrrolidin-4-ylthio)-6-(1-hydroxyethyl)71-methylcarbapenem-3-carboxylic acid, disodium salt]",MIC,[1],0.03 µg/mL
same,MIC,[2],0.03 µg/mL
same,MIC,[3],0.25 µg/mL
same,MIC,[4],0.03 µg/mL
same,MIC,[5],0.5 µg/mL
